One may read the Ki as a measure of affinity in units of concentration, obtained from inhibition or displacement. A higher Ki goes with a looser hold on the target.

The values that follow come from ChEMBL document CHEMBL1146714, “Peptidyl hydroxamic acids as methionine aminopeptidase inhibitors” (Bioorg Med Chem Lett, 2004).

Experiment [1] in a line: Inhibitory activity against methionine Escherichia coli aminopeptidase (MetAP).
The target of experiment [2] is Methionine aminopeptidase 2 (Homo sapiens, UniProt P50579). Kind of experiment: Inhibitory activity against Methionine aminopeptidase 2.
Sequence of Methionine aminopeptidase 2 (P50579 whole entry): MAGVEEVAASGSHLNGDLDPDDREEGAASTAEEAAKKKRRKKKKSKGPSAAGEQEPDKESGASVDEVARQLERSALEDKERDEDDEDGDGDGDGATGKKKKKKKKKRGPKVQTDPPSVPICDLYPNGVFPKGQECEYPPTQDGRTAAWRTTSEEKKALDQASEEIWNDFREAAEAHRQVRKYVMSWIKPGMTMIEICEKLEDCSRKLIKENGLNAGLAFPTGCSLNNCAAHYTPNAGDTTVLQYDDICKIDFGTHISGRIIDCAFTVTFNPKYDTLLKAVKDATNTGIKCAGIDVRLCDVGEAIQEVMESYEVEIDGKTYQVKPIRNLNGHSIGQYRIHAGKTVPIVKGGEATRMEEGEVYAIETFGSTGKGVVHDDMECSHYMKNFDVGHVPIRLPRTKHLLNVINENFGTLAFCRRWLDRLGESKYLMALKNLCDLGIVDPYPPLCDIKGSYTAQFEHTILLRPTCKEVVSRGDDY

In the case of `C[C@@H](N)C(=O)N(O)CC(=O)O`, the Ki in experiment [1] turned out to be 8.8 µM; in experiment [2], 600 µM. In experiment [1], `CCCC[C@H](N)C(=O)N(O)CCC(=O)NCCc1ccccn1` displayed a Ki of 48 µM.

As to `CSCC[C@H](N)C(=O)N(O)CC(=O)O`, the Ki in experiment [1] worked out at 170 µM; in experiment [2], 1300 µM. In the case of `CSCC[C@H](N)C(=O)N(O)CC(=O)NCCc1ccccn1`, the inhibition constant (Ki) in experiment [1] is 2.5 µM. For the compound `CCCC[C@H](N)C(=O)N(O)CC(=O)NCCc1ccccn1`, the inhibition constant Ki came out at 59 µM in experiment [1] and 164 µM in experiment [2].
